Data reported in US12310929B2, “Use of rasagiline for the treatment of restless legs syndrome” (TEVA PHARMACEUTICAL INDUSTRIES, LTD., priority 2006, dated 2025).

Legend:
[1] = tested on: 6-hydroxydopamine lesioned rats; details: treated lesioned rats compared with untreated lesioned rats
Method: 6-hydroxydopamine is an agent that selectively disrupts or destroys catecholaminergic systems. Thus, stereotaxic bilateral 6-hydroxydopamine lesions into the nucleus of dopaminergic diencephalic spinal neurons (A11) are performed to effect behavior consistent, although not specific, with what would be expected in a rat model of RLS. (Ondo W. G. et al., Clinical Correlates of 6-Hydroxydopamine Injections into A11 Dopaminergic Neurons in Rats: A Possible Model for Restless Leg Syndrome, Mov. Disord., 2000, 15(1):154-8)

RLS = details: treatment of RLS; cited from earlier work

With `C#CCN[C@@H]1CCc2ccccc21.CS(=O)(=O)O` [R(+)PAI mesylate, R(+)-N-propargyl-1-aminoindan mesylate] the “number of standing episodes” value [1] was “fewer standing episodes” and the total standing time [1] was “less total standing time”.

For `Clc1cccc(Cl)c1N=C1NCCN1` [Clonidine], the “quality of sleep, frequency of waking up, periodic leg movement during sleep” value (RLS) is listed as “no effect” and the soporiferous latency (RLS) is listed as “reduced”.
